Patent US11351218B2, “Composition for preventing or treating glioblastoma comprising Platycodon grandiflorum A. De Candolle, Scutellaria baicalensis, Phellodendron amurense Ruprecht or Rubus coreanus” (University-Industry Cooperation Group of Kyung Hee …, priority 2019, dated 2022)
Residues, ends and D or L forms follow the SMILES beside them. *: point of attachment. Cbz = O=C(OCc1ccccc1)*; CH2F = FC*

Experiments:
Ax1 = assay: Western blot of Ax1 expression after natural compounds, U87MG and U373MG cells; assay type: cell-based, human; conditions: varying concentrations, 48 hours
Protocol: Cells were washed with PBS and dissolved using a RIPA buffer (150 mM NaCl, 1% NP-40, 0.5% DOC, 0.1% SDS, 50 mM Tris (pH 8.0), 1 mM EDTA, 1 mM PMSF, 1 mM NaF, 1 mM Na3PO4, 1 μL aprotinin, leupeptin, and pepstatin), and proteins were isolated by centrifugation at 3,000× g for 20 minutes. An equal amount (20 μg) of each of the proteins was separated by 10% sodium dodecyl sulfate-polyacrylamide gel electrophoresis (SDS-PAGE) and the proteins separated using the Trans-blot unit were transferred to a nitrocellulose (NC) membrane. The membrane to which proteins were transferred was blocked with 5% non-fat dry milk (Tris buffered saline (TBS-T) containing 0.1% Tween-20) at room temperature for 1 hour, and primary antibodies, which were diluted at a 1:1,000 concentration, were allowed to react the proteins at 4° C. for 16 hours. After washing with PBS, the resultant was allowed to react with secondary antibodies, which were diluted at a 1:5,000 concentration, at room temperature for 1 hour. A Pierce ECL Western Blotting Substrate, which also underwent a washing process, was coated onto the membrane and allowed to react in a dark room with a film, and thereby, specific protein bands were confirmed. […]

U87MG and U373MG cells [1] = assay: WST1 cell viability assay, GBM cells; assay type: cell-based, human
Protocol: FIGS. 6A and 6B show the results that PD induces a decrease in cell viability and vacuole formation. […] Data shown represent the means of quintuplicate measurements which were repeated three times. The results are presented as a percentage of control (means±SD).
Cell cytotoxicity was assessed by WST1 assay. U87 and U373 cells were each seeded in a 96-well plate (5×10^3 cells/well) and treated with different concentrations of platycodin D (PD). Then, cells were incubated with a WST1 reagent (Dogen, Seoul, Korea) for 2 hours before reading the plate. Absorbance was measured at 450 nm using an ELISA reader (Versa Max, Molecular Devices, Sunnyvale, Calif., USA).

LC3B and SQSTM1/p62 = assay: Immunoblot of LC3B and SQSTM1/p62 in GBM cells (U87MG and U373MG); assay type: cell-based, human; conditions: combined treatment MβCD 100 μM and PD 10 μM
Protocol: FIGS. 2A and 2B show the results that an extract of Platycodon grandiflorum (PG) increases the levels of LC3-II and p62. […] GAPDH was used as a loading control.
FIGS. 3A to 3C show the results that PD inhibits autophagic flux in GBM cells. […] The expression of LC3B and SQSTM1 was confirmed by immunoblot analysis. […] GAPDH was used as a loading control.
The human glioma cell lines, U87MG and U373MG, were cultured respectively in RPMI-1640 (Welgene) and DMEM (Welgene, Daegu, Korea) supplemented with 10% fetal bovine serum (FBS, JR Scientific) and 1% antibiotics (Ab, Welgene). All cultures were maintained at 37° C. in a humidified incubator containing 5% CO2.
(§1) Cells treated with the concentrations and materials described in FIGS. 1-3B, 7, 8, 10, 13, 16, 18, and 20 were lysed in buffer containing 20 mM Tris-HCl (pH 7.5), 150 mM NaCl, 1 mM EDTA, 1 mM Na2EDTA, 1 mM EGTA, 1% NP-40, 1% sodium deoxycholate, 1 mM Na3VO4, 1 mM MPI, 1 mM PMSF, and PI cocktails for 15 to 20 minutes on ice. Cell lysates were separated by SDS-PAGE and transferred to nitrocellulose membranes. Immunodetection was performed with the following primary antibodies: rabbit anti-LC3B, rabbit anti-cathepsin B, rabbit-anti GAPDH (Cell Signaling Technology, Danvers, Mass.), mouse anti-SQSTM1/p62, and goat anti-cathepsin D (Santa CruzKPL, Gaithersburg, Md., USA) were incubated at room temperature for 1 hour. The protein bands were detected with ECL western Blotting Substrate (Thermo Fisher Scientific, Waltham, Mass., USA).

cathepsin B and D = assay: Immunoblot of cathepsin B and D processing in GBM cells; assay type: cell-based, human; conditions: addition of MβCD 100 μM to PD 10 μM-treated cells
Protocol: Immunoblot analyses for the processing of endogenous CTSB and CTSD are shown (upper, immature form/lower, mature form of CTSB and CTSD). GAPDH was used as a loading control.
as §1
To confirm whether PD functions as an autophagy inhibitor, the effects of PD on lysosomal proteases, cathepsin B and D, were examined Autophagy is a lysosome-mediated and self-degradative process that requires lysosomal cysteine proteases known as cathepsins. Since pro-cathepsins are cleaved into a mature form in lysosomes, the 33 kD active cleaved form of cathepsins has been commonly used as a marker for lysosomal activity. As can be confirmed in FIG. 13, while the mature forms of cathepsin B and D proteins were decreased, immature forms of those protein were increased after PD treatment in U87MG and U373MG cells, implying that PD suppresses a lysosomal function by downregulating the lysosomal proteolytic activity.

U87MG and U373MG cells [2] = assay: LysoTracker assay with GFP-LC3B (autophagosome-lysosome fusion) in GBM cells; assay type: cell-based, human; conditions: co-treatment MβCD 100 μM and PD 10 μM, 48 hours
Description: […] Then, cells were stained with LysoTracker (red) and DAPI (blue). The merged images show an overlap between GFP-LC3 and LysoTracker (yellow). The panels on the right are higher-magnification images of the boxed regions.
Cultured cells seeded in plates with microscope coverslips were transfected with a pGFP-LC3B plasmid using Lipofectamine 3000 (Thermo Fisher Scientific) according to the manufacturer's instructions. After the transfection, the cells were fixed with 4% paraformaldehyde (PFA) in phosphate-buffered saline (PBS) at room temperature for 10 minutes. The images were examined under a laser confocal microscope (Zeiss, Oberkochen, Baden-Wurttemberg, Germany).
To stain acidic compartments, 50 nM LysoTrackerRedDND-99 (Thermo Fisher Scientific) was added to a medium at 37° C. with 5% CO2 for 30 minutes prior to fixation. The nuclei were labeled with 4,6-diamidino-2-phenylindole (DAPI, Sigma). The slides were finally mounted using a Faramount mounting medium (Dako, Glostrup, Denmark). The images were examined under a Zeiss laser confocal microscope.
Experimental Result 11. PD Blocks Fusion of Autophagosomes with Lysosomes. Since p62 was accumulated in autophagosomes by PD treatment, it was speculated that PD may cause the lysosomal dysfunction like bafilomycin A1, which inhibits vacuolar H^+-ATPase (V-ATPase)-dependent lysosomal acidification and blocks autophagosome-lysosome fusion. Thus, the PD-treated cells with LysoTracker Red, which is a marker for acidic compartment including lysosomes was stained to examine the colocalization of GFP-LC3B.

U87MG and U373MG cells [3] = assay: Clonogenic assay, GBM cells; assay type: cell-based, human; conditions: co-treatment MβCD 100 μM with PD 10 μM or 20 μM, 7 days
Protocol: FIGS. 19A and 19B show the results that MβCD restores PD-mediated decrease in cell viability. […] Data shown represent the means of quintuplicate measurements which were repeated three times. The results are presented as a percentage of control (means±SD).
Approximately 2×10^3 cells were seeded into each 6-well plate and then treated as described in FIG. 19. After 7 days, the cells were washed with PBS and stained with 0.5% crystal violet.
Furthermore, as can be confirmed in FIG. 19B, a colony formation assay was performed to confirm the effects of MβCD on PD-mediated GBM cell death.

U87MG and U373MG cells [4] = assay: Cholesterol cell-based detection assay (filipin III staining) in GBM cells; design: species or system human
Protocol: (§2) FIGS. 15A and 15B show the results that PD promotes accumulation of cholesterol in lysosomes. Cells were treated with DMSO, PD (10 μM), or U18666a (1 μM) for 24 hours. […] Total cholesterol levels are expressed in cholesterol (μg) per protein (mg) of cell lysate and are shown as means±SD from two independent experiments.
Cells grown on coverslips were treated with the materials. Then, the cells were fixed with 4% PFA at room temperature for 10 minutes. The solution of Filipin III (Cayman) was added for staining of […] cholesterol and the samples were incubated in a dark room for 30 minutes. The images were examined under a Zeiss laser confocal microscope.
The present inventors concluded that PD inhibits the maturation of autophagosome into autolysosomes by inhibiting lysosomal degradation and an autophagosome-lysosome fusion in GBM cells. […] To examine whether the defect in the autophagosome-lysosome fusion by PD is due to altered intracellular cholesterol levels, the PD-treated GBM cells were stained with filipin-III, which is a fluorescent dye that binds to cholesterol. […] As can be confirmed in FIG. 14A, this filipin-III staining pattern is very similar to that found in GBM cells treated with U18666A, implying that PD blocks cholesterol release from lysosome and accumulates cholesterol in lysosomes.

U87MG and U373MG cells [5] = assay: Cholesterol measurement (total cholesterol assay kit) in GBM cells; assay type: cell-based, human; conditions: PD 10 μM or U18666a 1 μM, 24 hours
Protocol: as §2
Cells treated as described above were processed using a total cholesterol assay kit (STA384, Cell Biolabs) according to the manufacterer's instructions. Cholesterol esters and free cholesterol were quantified by homogenizing 10^6 cells extracted from a 200 μL mixture of chloroform: isopropanol: NP-40 (7:11:0.1). After centrifugation of the extract at 15,000× g for 10 minutes, the organic phase was collected and evaporated at 50° C. The extract was resuspended in 200 μL of a 1× cholesterol assay diluent prior to analysis. The colorimetric signal was analyzed using an ELISA reader (Versa Max, Molecular Devices, Sunnyvale, Calif., USA) at 540 nm. Cellular cholesterol results were reported as μg of cholesterol per mg of cell protein.

cell-surface LDLR [6] = assay: Cell surface LDLR analysis by flow cytometry, GBM cells; assay type: cell-based, human; conditions: PD 10 μM or U18666a 1 μM, 24 hours
Protocol: (§3) FIGS. 16A to 16D show the results that PD increases the expression of LDLR on cell surfaces in GBM cells. […] GAPDH was used as a loading control. […] GAPDH was used as a loading control.
(§4) Cells treated as described in FIG. 16 were separated from plates and resuspended in PBS. After washing with 1% BSA in PBS, the cells were incubated with a primary antibody against human LDLR (Abcam) for 30 minutes. Then, the cells were washed before incubation with an Alexa-Fluor 488-conjugated secondary antibody (Invitrogen) for 30 minutes. The stained cells were washed and resuspended. Fluorescence was analyzed by a FACScalibur flow cytometer (Becton Dickinson, San Jose, Calif., USA) using CellQuest™ software.
(§5) Brain is the most cholesterol-rich organ of the body, containing about 20% of total body cholesterol. […] As can be confirmed in FIG. 16A, in consistent with these reports, the LDLR protein level was markedly elevated in U87MG and U373MG cells relative to normal human astrocytes. […] Then, the cell surface expression of LDLR was confirmed by flow cytometry.

normal astrocytes = assay: BODIPY FL LDL uptake assay, normal astrocytes; assay type: cell-based, human; conditions: PD 10 μM or U18 1 μM, 24 hours
Protocol: (§6) Cells were treated with DMSO, PD (10 μM), or U18 (1 μM) for 24 hours and subsequently loaded with BODIPY™ FL LDL. BODIPY-LDL uptake was visualized by confocal microscopy. Nuclei were stained with DAPI (blue). Quantification shown on the right graph represents a relative fold change from three independent experiments±SD.
(§7) Cells seeded on coverslips were treated with the materials and then the culture medium was replaced with BODIPY™ FL LDL (Thermo Fisher Scientific) at a working concentration of 5 μg/mL in a medium. The cells were additionally incubated at 37° C. for 1 hour. The degree of LDL uptake was measured using a Zeiss laser confocal microscope.
(§8) Based on the previous study results of the present inventors that PD increases cell surface LDLR expression and accumulate cholesterol within lysosomes, whether PD can increase the uptake of exogenous LDL was examined Cells pretreated with PD or U18666A were incubated with BODIPY FL-labeled LDL particles for 1 hour and the LDL uptake was observed by a confocal microscope. Upon analysis of these cells, it was observed that PD caused about a 6-fold increase in LDL uptake and it was a level similar to that detected in the U18666A-treated cells.

U87MG and U373MG cells [7] = assay: BODIPY FL LDL uptake assay, GBM cells; assay type: cell-based, human; conditions: U18 1 μM 24 hours, BODIPY FL LDL 1 hour
Protocol: as §6, §7, §8

LDLR = assay: Immunoblot of LDLR in U87MG, U373MG cells and normal astrocytes; assay type: cell-based, human; conditions: PD 5 μM and 10 μM or U18666a 1 μM, 24 hours; U87MG, U373MG and normal astrocytes
Protocol: as §3, §1, §5

cell-surface LDLR [8] = assay: Cell surface LDLR analysis by flow cytometry, normal astrocytes; assay type: cell-based, human; conditions: PD 10 μM or U18666a 1 μM, 24 hours
Protocol: as §3, §4, §5

## O=c1c(O)c(-c2ccc(O)c(O)c2)oc2cc(O)cc(O)c12 [quercetin]
Ax1
  expression of Ax1: reduced the expression of Ax1

## O=C(O)[C@H]1O[C@@H](Oc2cc3oc(-c4ccccc4)cc(=O)c3c(O)c2O)[C@H](O)[C@@H](O)[C@@H]1O [baicalin]
Ax1
  expression of Ax1: reduced the expression of Ax1

## COC(=O)C[C@H](NC(=O)[C@H](C)NC(=O)[C@@H](NC(=O)OCc1ccccc1)C(C)C)C(=O)CF [z-VAD-fmk, reference compound] (Cbz-Val-Ala-Asp(OMe)-CH2F)
U87MG and U373MG cells [1]; z-VAD-fmk 50 μM with PD 10 μM and 20 μM, 48 hours
  cell viability, co-treatment vs PD-alone: little impact

## methyl β-cyclodextrin [MβCD, reference compound]
U87MG and U373MG cells [1]; combined treatment MβCD 100 μM and PD 10 μM, 72 hours
  viability of GBM cells: significantly restored the viability
LC3B and SQSTM1/p62
  changes in LC3-II and p62 levels increased by PD alone: almost completely restored
Cathepsin B and D
  activity of cathepsin B: recovered activity
U87MG and U373MG cells [2]
  colocalization of GFP-LC3B puncta with LysoTracker Red fluorescence: remarkable increase
U87MG and U373MG cells [3]
  colony-forming ability: almost completely recovered
U87MG and U373MG cells [4]; PD 10 μM 24 hours, then MβCD 100 μM 48 hours
  accumulated cholesterol in lysosomes: successfully depleted

## CCN(CC)CCO[C@H]1CC[C@@]2(C)C(=CC[C@@H]3[C@@H]2CC[C@]2(C)C(=O)CC[C@@H]32)C1 [U18666A, reference compound]
U87MG and U373MG cells [5]
  free cholesterol levels: significant increase
cell-surface LDLR [6]
  cell surface expression of LDLR: shift of the FL-1 histogram peak toward right
Normal astrocytes
  LDL uptake: less effective
U87MG and U373MG cells [7]
  LDL uptake level compared with PD: similar
LDLR
  LDLR expression: increased the LDLR expression
cell-surface LDLR [8]
  changes in peak shift (cell surface LDLR): very negligible
U87MG and U373MG cells [4]; PD 10 μM or U18666a 1 μM, 24 hours
  cellular cholesterol distribution (filipin-III staining): very similar
